# According to the supplement of paper PMC10702517:
# ± gives the standard deviation.
# Tests used:
# [1] = chemical recovery by SPE of plasma after PDMS sampling; higher = better extraction; settings: pooled human plasma, extraction method: HLB SPE of plasma after PES
# [2] = chemical recovery from spiked human plasma; higher = better extraction; settings: pooled human plasma
# [3] = chemical recovery into PDMS from spiked human plasma; higher = better extraction; settings: pooled human plasma, extraction method: PES with PDMS
# [4] = extraction method: PES+SPE (3 d PDMS equilibration then HLB SPE)
# [5] = extraction method: SPE only (HLB 96-well)
# [6] = extraction method: SPE only (HLB 96-well), PES comparison experiment
# [7] = extraction method: solvent precipitation (ACN + hexane)
# 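Wherever chemical recovery by SPE of plasma after PDMS sampling is given: over 400 spiked chemicals quantified by LC-HRMS or GC-HRMS via internal standard calibration, recovery relative to spike mix added to unspiked plasma extract to correct matrix effects.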
Compound,chemical recovery by SPE of plasma ([1]; equilibration time (d): 1),chemical recovery by SPE of plasma ([1]; equilibration time (d): 3),chemical recovery by SPE of plasma ([1]; equilibration time (d): 6),"chemical recovery [2, 4]","chemical recovery [2, 5]","chemical recovery [2, 6]","chemical recovery [2, 7]",chemical recovery into PDMS ([3]; equilibration time (d): 1),chemical recovery into PDMS ([3]; equilibration time (d): 3),chemical recovery into PDMS ([3]; equilibration time (d): 6)
C#CC(C)(C)NC(=O)c1cc(Cl)cc(Cl)c1 [Propyzamide],5.12 ± 0.61%,7.16 ± 0.99%,4.71 ± 0.68%,64.9 ± 12%,65 ± 3.2%,48.1 ± 8.4%,64.8 ± 3.9%,34.8 ± 1.4%,38.5 ± 1.1%,39.4 ± 0.71%
OC(Cc1ccccc1Cl)(Cn1cncn1)C1(Cl)CC1 (stereo unspecified) [Prothioconazole-desthio],0.693 ± 0.059%,0.829 ± 0.22%,0.428 ± 0.025%,,,47 ± 6.8%,89.2 ± 4%,36.2 ± 2.6%,38.6 ± 2%,38.5 ± 1.7%
c1cc2ccc3cccc4ccc(c1)c2c34 [Pyrene],4.17 ± 2.2%,5.06 ± 1.2%,3.59 ± 0.37%,,19.5 ± 5.1%,19.4 ± 2.8%,,,79.6 ± 17%,77.8 ± 20%
c1ccc2ncccc2c1 [Quinoline],0.053 ± 0.092%,0.00565 ± 0.0098%,0.0105 ± 0.018%,,16.5 ± 4.6%,,,8.77 ± 5.3%,9.55 ± 7.5%,4.43 ± 4.2%
Fc1ccc(Oc2ccnc3cc(Cl)cc(Cl)c23)cc1 [Quinoxyfen],,0.232 ± 0.06%,,,57.2 ± 16%,31.6 ± 5.7%,96.2 ± 9.7%,48 ± 4.7%,50.5 ± 5.9%,48.7 ± 2%
Cc1nc2n(c(=O)c1CCN1CCC(c3noc4cc(F)ccc34)CC1)CCCC2 [Risperidone],4.71 ± 0.66%,3.9 ± 0.9%,2.32 ± 0.59%,,,,73.2 ± 3.6%,0.00139 ± 0.0024%,0.000765 ± 0.0018%,
CN[C@H]1CC[C@@H](c2ccc(Cl)c(Cl)c2)c2ccccc21 [Sertraline],0.296 ± 0.11%,0.321 ± 0.11%,0.0944 ± 0.088%,1.09 ± 0.4%,71.9 ± 9.3%,40.5 ± 8.4%,72.8 ± 3.8%,0.493 ± 0.065%,0.434 ± 0.081%,0.535 ± 0.27%
CCNc1nc(Cl)nc(NCC)n1 [Simazine],9.65 ± 1.2%,7.56 ± 1.3%,4.81 ± 0.55%,47.8 ± 5.9%,43.4 ± 2.3%,48.6 ± 5.5%,60.6 ± 5.9%,30.5 ± 1.1%,35.8 ± 1.3%,38.6 ± 2.5%
CCNc1nc(NCC)nc(SC)n1 [Simetryn],12.9 ± 2.2%,5.73 ± 0.83%,3.34 ± 0.47%,,41.6 ± 3.2%,46.7 ± 4.3%,70.9 ± 3.6%,21.2 ± 8.1%,25.4 ± 8.6%,28.9 ± 5.6%
CC[C@H]1CCC[C@H](O[C@H]2CC[C@H](N(C)C)[C@@H](C)O2)[C@@H](C)C(=O)C2=C[C@@H]3[C@@H](C=C[C@@H]4C[C@@H](O[C@@H]5O[C@@H](C)[C@H](OC)[C@@H](OC)[C@H]5OC)C[C@@H]34)[C@@H]2CC(=O)O1 [Spinosyn A],0.0715 ± 0.12%,0.155 ± 0.14%,0.0384 ± 0.0082%,,,39.5 ± 10%,71.7 ± 10%,0.00824 ± 0.014%,0.0193 ± 0.034%,0.00695 ± 0.012%
CS(=O)(=O)c1ccc(C(=O)C2C(=O)CCCC2=O)c(Cl)c1 [Sulcotrione],53.9 ± 7%,59.9 ± 2.5%,54.5 ± 2%,57 ± 5.9%,47.6 ± 3.3%,51.3 ± 2.9%,72.8 ± 3.6%,,,0.00153 ± 0.0027%
O=P(OC(CCl)CCl)(OC(CCl)CCl)OC(CCl)CCl [TDCPP],4.16 ± 3.7%,4.02 ± 4.5%,2.14 ± 3.7%,,46.5 ± 0.97%,50.5 ± 5.6%,,35.2 ± 3%,37.4 ± 4.4%,35.8 ± 3%
CC(C)CC(C)(O)C#CC(C)(O)CC(C)C (stereo unspecified) [TMDD],,,38.6 ± 6%,,47.5 ± 6%,,77.6 ± 7%,47.1 ± 4.9%,,60.2 ± 18%
CCCc1nc2c(C)cc(-c3nc4ccccc4n3C)cc2n1Cc1ccc(-c2ccccc2C(=O)O)cc1 [Telmisartan],43.6 ± 3.4%,46.2 ± 1%,43.5 ± 2.1%,55.8 ± 1.8%,50.8 ± 2.5%,45.4 ± 5.1%,,0.144 ± 0.041%,0.817 ± 0.34%,1.28 ± 0.6%
CN1C(=O)C(O)N=C(c2ccccc2)c2cc(Cl)ccc21 (stereo unspecified) [Temazepam],30.4 ± 4.8%,27.9 ± 3.1%,22 ± 2.1%,62.9 ± 6.2%,46.8 ± 2.9%,44.5 ± 6.3%,77.8 ± 3.1%,11.2 ± 0.91%,16.5 ± 0.71%,17.6 ± 1.9%
CC/C(=N\OC/C=C/Cl)C1=C(O)CC(C2CCOCC2)CC1=O (stereo unspecified) [Tepraloxydim],47.5 ± 6.9%,48.3 ± 2.9%,41.9 ± 3.2%,45.7 ± 5%,40.5 ± 2.5%,51.8 ± 3%,73.8 ± 3.1%,0.0964 ± 0.084%,0.473 ± 0.3%,0.369 ± 0.063%
CN(C/C=C/C#CC(C)(C)C)Cc1cccc2ccccc12 [Terbinafine],0.265 ± 0.18%,0.2 ± 0.089%,0.0441 ± 0.0079%,,46.4 ± 1%,50 ± 10%,86.4 ± 13%,0.00204 ± 0.0035%,0.065 ± 0.1%,0.00509 ± 0.0088%
CCNc1nc(Cl)nc(NC(C)(C)C)n1 [Terbuthylazine],1.41 ± 0.15%,1.28 ± 0.32%,0.724 ± 0.021%,64.8 ± 10%,61.8 ± 2.3%,45.8 ± 8%,69.5 ± 7.1%,37 ± 1%,41.3 ± 3.5%,41.4 ± 1.7%
